In patent EP1510211A1, “Pharmaceutical composition comprising N-retinyl-N-retinylidene Ethanolamine (A2E), isoforms of A2E or derivatives thereof” (Lynkeus Biotech GmbH, priority 2003, dated 2005):

Experiments:
[1] = system: porcine primary retinal pigment epithelial cells (RPE); experiment: Apoptosis by Cell Death ELISA Plus Kit in primary RPE cells; format: cell-based
Experimental: (§1) RPE, ARPE-19, and MDCK-F1 cells are exposed to both PG (0, 10, 50 µg/ml) and A2E (0, 15 or 20 µM) for 4 hrs. […] RPE, ARPE-19, and MDCK-F1 cells are exposed to both PG (0, 10, 50 µg/ml) and iso-A2E (0, 15 or 20 µM) under the influence of light for 4 hrs. Then they are washed 3 times with PBS and the apoptosis is determined by Cell Death ELISA Plus Kit (Roche, Mannheim, Germany)
(§2) As an example, the apoptotic effect of A2E on porcine primary retinal pigment epithelial cells (RPE), and the cell lines ARPE-19 and MDCK-F1 cells is analyzed. • Example 1 describes the apoptotic effect of A2E on RPE, ARPE-19, and MDCK-F1 cells. The cells are exposed to 0, 15 and 30 µM of A2E for 2, 4, 6 and 22 hrs. […] Then they are washed 3 times with PBS and the apoptosis is determined by Cell Death ELISA Plus Kit (Roche, Mannheim, Germany). • Example 3 describes the apoptotic effect of A2E on RPE, ARPE-19, and MDCK-F1 cells after application of iso-A2E and exposure in light (photo-isomerization). […] Then they are washed 3 times with PBS and the apoptosis is determined by Cell Death ELISA Plus Kit (Roche, Mannheim, Germany) (see figure 4).
(§3) RPE and ARPE-19 cells: Primary porcine retinal pigment epithelial cells were isolated as previously described. […] Detection of apoptosis: Apoptosis was detected by Cell Death ELISA Plus Kit (Roche, Mannheim, Germany). […]

[2] = system: ARPE-19 cells; experiment: Apoptosis by Cell Death ELISA Plus Kit in ARPE-19 cells; format: cell-based, human
Experimental: as §1, §2, §3

[3] = system: MDCK-F1 cells; experiment: Apoptosis by Cell Death ELISA Plus Kit in MDCK-F1 cells; format: cell-based, canine
Experimental: as §1, §2, §3

[4] = PG (0, 10, 50 µg/ml) together with A2E (0, 15 or 20 µM) for 4 hrs, Figure 3
[5] = PG (0, 10, 50 µg/ml) together with iso-A2E (0, 15 or 20 µM) under the influence of light for 4 hrs, Figure 4

L-A-Phosphatidyl-DL-Glycerol sodium [PG]
protective effect: protective effect regarding the apoptotic effect of A2E [1, 4] | protective effect regarding the apoptotic effect of photo-isomerization of iso-A2E [1, 5] | protective effect regarding the apoptotic effect of A2E [2, 4] | protective effect regarding the apoptotic effect of photo-isomerization of iso-A2E [2, 5] | protective effect regarding the apoptotic effect of A2E [3, 4] | protective effect regarding the apoptotic effect of photo-isomerization of iso-A2E [3, 5]
